Values belong to the molecule of their own block, whether it stands above or below them. The source made the active and inactive calls. The rule behind the calls is not given here. Numbered stars: 1 amine (or outer) side, 2 acyl side, 3 side chain; on linkers, the order of the positions; unused ones are H or OH. Square brackets hold non-standard residues; d marks the D form. Peptide text beside a SMILES is read from it. * marks the point of attachment. X2 = CC(C)(C(=O)*)n1cc(-c2cccc(C(F)(F)F)c2)nn1; X1 = CC(=O)CCCC[C@H](N[*:1])C(=O)[*:2]; Aib = CC(C)(N)C(=O)O
How the values were obtained:
[1] = Inhibition of VDAC mediated mitochondrial Ca2+ release in HEK293 cells transfected with mitoGCaMP2; type: cell-based; conditions: Homo sapiens
HEK293 [2] = experiment: Inhibition of VDAC in mitochondria of HEK293 cells transfected with mitoGCaMP2 assessed as calcium efflux from mitochondria by measuring decrease in mitoGCaMP2 fluorescence at 6 mM by DAPI staining confocal imaging analysis; conditions: Homo sapiens, time 30.0 min
HEK293 [3] = experiment: Inhibition of VDAC in mitochondria of HEK293 cells transfected with mitoGCaMP2 assessed as calcium efflux from mitochondria by measuring decrease in mitoGCaMP2 fluorescence at 33 uM by DAPI staining confocal imaging analysis; conditions: Homo sapiens
HEK293 [4] = experiment: Inhibition of VDAC in mitochondria of HEK293 cells transfected with mitoGCaMP2 assessed as calcium efflux by measuring mitoGCaMP2 fluorescence in cytoplasm at 33 uM by DAPI staining confocal imaging analysis; type: subcellular; conditions: Homo sapiens
[5] = Metabolic stability in rat serum assessed as parent compound remaining at 66.6 uM after 24 hr incubation by LC-MS analysis relative to control; type: ADME, cell-free; conditions: read-out: Stability
Mus musculus [6] = organism: Mus musculus; experiment: Inhibition of demyelination in sciatic nerve explant C57BL6/J mouse model assessed as reduction in fiber damage level in serum containing medium at 3 uM measured after 24 hrs by coherent anti Stokes raman scattering assay; type: functional
Mus musculus [7] = organism: Mus musculus; experiment: Inhibition of demyelination in sciatic nerve explant C57BL6/J mouse model assessed as reduction in fiber damage level in serum free medium at 3 uM measured after 24 hrs by coherent anti Stokes raman scattering assay; type: functional
Homo sapiens = organism: Homo sapiens; experiment: Inhibition of VDAC (unknown origin) mediated mitochondrial Ca2+ release at 100 uM
[8] = Metabolic stability in rat serum assessed as parent compound remaining at 66.6 uM after 1 hr incubation by LC-MS analysis relative to control; type: ADME, cell-free; conditions: read-out: Stability

Molecule: CCCC[C@H](NC(=O)[C@H](CCC(N)=O)NC(=O)[C@@H]1CCCN1C(=O)[C@@H]1CCCN1C(=O)[C@H](CCCNC(=N)N)NC(=O)[C@H](CCCNC(=N)N)NC(=O)[C@H](CCCNC(=N)N)NC(=O)[C@H](CCC(N)=O)NC(=O)[C@H](CCCNC(=N)N)NC(=O)[C@H](CCCNC(=N)N)NC(=O)[C@H](CCCCN)NC(=O)[C@H](CCCCN)NC(=O)[C@H](CCCNC(=N)N)NC(=O)CNC(C)=O)C(=O)N[C@H](C(=O)N[C@@H](C)C(=O)N[C@@H](C)C(=O)N[C@@H](CCC(N)=O)C(=O)N[C@@H](CC(C)C)C(=O)N[C@@H](CC(C)C)C(=O)N[C@@H](C)C(=O)N[C@@H](Cc1ccc(O)cc1)C(=O)N[C@@H](Cc1ccc(O)cc1)C(=O)N[C@@H](Cc1ccccc1)C(=O)N[C@H](C(=O)N[C@@H](CCC(=O)O)C(=O)N[C@@H](CC(C)C)C(=O)N[C@@H](CCCCN)C(N)=O)[C@@H](C)O)[C@@H](C)CC
IC50 [1]: 13.9 µM

inhibition (HEK293 [2]): Active | inhibition (HEK293 [3]): Active | inhibition (HEK293 [4]): Active
Molecule: CC/C=C\C[C@H]1C(=O)CC[C@@H]1CC(=O)OC

remaining at 24 h, 66.6 µM [5]: 65%
Molecule: CC(=O)N[C@@H](C)C(=O)N[C@@H](CCC(N)=O)C(=O)N[C@@H](CC(C)C)C(=O)N[C@@H](CC(C)C)C(=O)NC(C)(C)C(=O)N[C@@H](Cc1ccc(O)cc1)C(=O)N[C@@H](Cc1ccc(O)cc1)C(=O)N[C@@H](Cc1ccccc1)C(=O)N[C@H](C(=O)N[C@@H](CCC(=O)O)C(=O)N[C@@H](CC(C)C)C(=O)N[C@@H](CCCCN)C(N)=O)[C@@H](C)O (Ac-AQLL[Aib]YYFTELK-NH2)

remaining at 24 h, 66.6 µM [5]: 75%
Molecule: CC(=O)N[C@@H](C)C(=O)NC(C)(C)C(=O)N[C@@H](C)C(=O)NC(C)(C)C(=O)N[C@@H](C)C(=O)N[C@@H](CCC(N)=O)C(=O)N[C@@H](CC(C)C)C(=O)N[C@@H](CC(C)C)C(=O)NC(C)(C)C(=O)N[C@@H](Cc1ccc(O)cc1)C(=O)N[C@@H](Cc1ccc(O)cc1)C(=O)N[C@@H](Cc1ccccc1)C(=O)N[C@H](C(=O)N[C@@H](CCC(=O)O)C(=O)N[C@@H](CC(C)C)C(=O)N[C@@H](CCCCN)C(N)=O)[C@@H](C)O (Ac-A[Aib]A[Aib]AQLL[Aib]YYFTELK-NH2)

Molecule: CC(=O)N[C@@H](C)C(=O)NC(C)(C)C(=O)N[C@@H](C)C(=O)NC(C)(C)C(=O)N[C@@H](C)C(=O)N[C@@H](CCC(N)=O)C(=O)N[C@@H](CC(C)C)C(=O)N[C@@H](CC(C)C)C(=O)NC(C)(C)C(=O)N[C@@H](Cc1ccc(O)cc1)C(=O)N[C@@H](Cc1ccc(O)cc1)C(=O)N[C@@H](Cc1ccccc1)C(=O)N[C@H](C(=O)N[C@@H](CCC(=O)O)C(=O)N[C@@H](CC(C)C)C(=O)N[C@@H](CCCCN)C(=O)NCC(=O)N[C@@H](CCCNC(=N)N)C(=O)N[C@@H](CCCCN)C(=O)N[C@@H](CCCCN)C(=O)N[C@@H](CCCNC(=N)N)C(=O)N[C@@H](CCCNC(=N)N)C(=O)N[C@@H](CCC(N)=O)C(=O)N[C@@H](CCCNC(=N)N)C(=O)N[C@@H](CCCNC(=N)N)C(=O)N[C@@H](CCCNC(=N)N)C(=O)N1CCC[C@H]1C(=O)N1CCC[C@H]1C(=O)N[C@@H](CCC(N)=O)C(N)=O)[C@@H](C)O (Ac-A[Aib]A[Aib]AQLL[Aib]YYFTELKGRKKRRQRRRPPQ-NH2)
inhibition (Mus musculus [6]): Active | inhibition (Mus musculus [7]): Active

IC50 [1]: 15.6 µM | inhibition (HEK293 [3]): Active | inhibition (Homo sapiens): Active | inhibition (HEK293 [4]): Active
Molecule: CC[C@H](C)[C@H](NC(=O)[C@@H](N)CCCCC(C)=O)C(=O)N[C@@H](C)C(=O)N[C@@H](C)C(=O)N[C@@H](CCC(N)=O)C(=O)N[C@@H](CC(C)C)C(=O)N[C@@H](CC(C)C)C(=O)N[C@@H](C)C(=O)N[C@@H](Cc1ccc(O)cc1)C(=O)N[C@@H](Cc1ccc(O)cc1)C(=O)N[C@@H](Cc1ccccc1)C(=O)N[C@H](C(=O)N[C@@H](CCC(=O)O)C(=O)N[C@@H](CC(C)C)C(=O)N[C@@H](CCCCN)C(=O)NCC(=O)N[C@@H](CCCNC(=N)N)C(=O)N[C@@H](CCCCN)C(=O)N[C@@H](CCCCN)C(=O)N[C@@H](CCCNC(=N)N)C(=O)N[C@@H](CCCNC(=N)N)C(=O)N[C@@H](CCC(N)=O)C(=O)N[C@@H](CCCNC(=N)N)C(=O)N[C@@H](CCCNC(=N)N)C(=O)N[C@@H](CCCNC(=N)N)C(=O)N1CCC[C@H]1C(=O)N1CCC[C@H]1C(=O)N[C@@H](CCC(N)=O)C(N)=O)[C@@H](C)O (H-[X1]IAAQLLAYYFTELKGRKKRRQRRRPPQ-NH2)

Molecule: C[C@H](NC(=O)C(C)(C)n1cc(-c2cccc(C(F)(F)F)c2)nn1)C(=O)N[C@@H](CCC(N)=O)C(=O)N[C@@H](Cc1c[nH]c2ccccc12)C(=O)N[C@@H](Cc1c[nH]c2ccccc12)C(=O)NC(C)(C)C(=O)N[C@@H](Cc1ccc(O)cc1)C(=O)N[C@@H](Cc1ccc(O)cc1)C(=O)N[C@@H](Cc1ccccc1)C(=O)N[C@H](C(=O)N[C@@H](CCC(=O)O)C(=O)N[C@@H](Cc1c[nH]c2ccccc12)C(=O)N[C@@H](CCCCN)C(=O)NCC(=O)N[C@@H](CCCNC(=N)N)C(=O)N[C@@H](CCCCN)C(=O)N[C@@H](CCCCN)C(=O)N[C@@H](CCCNC(=N)N)C(=O)N[C@@H](CCCNC(=N)N)C(=O)N[C@@H](CCC(N)=O)C(=O)N[C@@H](CCCNC(=N)N)C(=O)N[C@@H](CCCNC(=N)N)C(=O)N[C@@H](CCCNC(=N)N)C(=O)N1CCC[C@H]1C(=O)N1CCC[C@H]1C(=O)N[C@@H](CCC(N)=O)C(N)=O)[C@@H](C)O (X2-AQWW[Aib]YYFTEWKGRKKRRQRRRPPQ-NH2)
inhibition (Mus musculus [6]): Active | inhibition (Mus musculus [7]): Active

remaining at 1 h, 66.6 µM [8]: 8%
Molecule: Ac-AQLLAYYFTELK-NH2

IC50 [1]: 3.6 µM
Molecule: Ac-AQWWAYYFTEWK-NH2

Molecule: Ac-AQWWAYYFTEWKGRKKRRQRRRPPQ-NH2
inhibition (Mus musculus [7]): Active

From ChEMBL document CHEMBL5126620, “Mapping the N-Terminal Hexokinase-I Binding Site onto Voltage-Dependent Anion Channel-1 To Block Peripheral Nerve Demyelination” (J Med Chem, 2022)
